According to patent US7446125B2, “Derivatives of nitroproline compounds, processes of manufacture and uses in the treatment of integrin mediated disorders” (Universidad del Pais Vasco, priority 2005, dated 2008):
Blank lines part the entries; values can stand above or below the compound they belong to.

Assays:
VLA-4 [1] = target: T1, VLA-4 (Mus musculus, UniProt P09055+Q00651); assay: B16M (MB16) melanoma cell adhesion to primary cultured hepatic sinusoidal endothelial (HSE) cells; assay type: cell-based, murine; settings: B16M cells preincubated with compound, 50 μg/1×10^6 MB16 cells; TNF-alpha-treated HSE or H2O2-treated B16M cells; FIG. 6
T1 construct: The tumor used is the B16F10 subline of MB16, the VLA-4 expression of which is constitutive; endogenous in cells; host or cells: B16F10 (MB16/B16M) murine melanoma cells; VCAM-1 on primary mouse HSE cells
Procedure: The tumor used is the B16F10 subline of MB16, the VLA-4 expression of which is constitutive.
The MB16 tumor cells (subline B16F10) are cultured in incubator at 37° C., with 5% CO2 atmosphere, in DMEM medium (Dulbecco's modified Eagle's medium), adjusted to pH 7.4 and supplemented with penicillin (100 U/ml), streptomycin (100 μg/ml) and 5% fetal bovine serum. The cells are maintained and subcultured according to a previously-described method (Vidal-Vanaclocha et al. Cancer Research, 1994, 54, 2667).
The hepatic sinusoidal cells are isolated from C57BU6J mice (males, age 6-8 weeks) supplied by IFFA Credo (L'Arbreole, France). For their purification and identification, the previously-described protocol is employed (Vidal-Vanaclocha et al. Hepatology, 1993, 18, 328-339). The primary HSE cell cultures are obtained by seeding the cells on a Type I collagen substrate (Sigma Chemicals Co, St Louis, Mo.) in the presence of DMEM, supplementing with penicillin (100 U/ml), streptomycin (100 μg/ml) and 10% fetal bovine serum, at 37° C. in 5% CO2 atmosphere.
The endothelial cells are isolated 24 hours prior to the adhesion test and are seeded on 24-well plate, maintaining them a minimum of 4 hours in free serum medium before incubating them with DMEM in the presence or not of 10 ng/ml TNF-α for 6 hours. The B16 cells are marked with 40 μg/ml of the BCECF-AM fluorescent probe (carboxyfluorescein, 2′,7′-bis-(2-carboxy-etyl)-5-(6)carboxyfluorescein aminoxymethyl ester), supplied by Molecular Probes Inc. (Oregon, USA). Afterward, a washing with DMEM medium without serum is performed to remove the excess flurorchromium, and the compounds of general formula I are incubated at 37° C. for 15 minutes at the concentration of 50 μg/1×10^6 MB16 cells. This is followed by two washings, the number of visible cells being calculated by means of the trypan blue dye exclusion test, and they are resuspended to a concentration of 2×10^5 cells/ml. One (1) ml of the MB16 cell suspension is added to each well on the primary HSE cell culture plate, and the co-cultures are incubated at 37° C. for 8 minutes. The percentage of cellular adhesion is calculated by means of a previously-described fluorescence measurement system (Vidal-Vanaclocha et al. Cancer Research, 1994, 54, 2667).
Next, the potential VLA-4 antagonism of compounds 11 was tested through a previously established model on VLA-4NCAM-1-interaction-dependent B16M cell adhesion to primary cultured hepatic sinusoidal endothelial (HSE) cells in vitro.

[2] = system: VEGF production by soluble VCAM-1-stimulated B16M cells; assay: VEGF production by soluble VCAM-1-treated B16M cells in vitro; assay type: cell-based, murine; settings: soluble VCAM-1-stimulated cells; FIG. 4
VLA-4 [3] = target: T1, VLA-4; assay: B16M (MB16) cell adhesion to immobilized recombinant human VCAM-1; assay type: cell-based, murine; settings: IL-1b (interleukin-1b)-treated melanoma cells; FIG. 3
B16M cells [4] = assay: Cell viability, cytotoxicity, intracellular oxidative metabolism and proliferation rate of treated melanoma cells; assay type: cell-based, murine
Procedure: (§1) B16M cells were cultured for 24 hours in the presence 50 μg/ml of compound 11d, or […] anti-murine VLA-4 antibody. Cultured cells were fixed and processed for the immunohistochemical detection of Ki-67 antigen expression. Next, a computed-aid microscopic image analysis system was used to discriminate stained cells (brown nuclei) and calculate the average number of Ki-67 antigen-expressing cells per 1×10^4 cells. The results are the mean±SD of 6 independent fields, from 3 different experiments (n=18).

B16M cells [5] = assay: Hepatic metastasis of intrasplenically injected, compound-pretreated B16M cells; assay type: in vivo, C57BU6J mice; settings: mice intrasplenically injected with pretreated B16M cells relative to untreated cells; P<0.01; FIG. 7
Procedure: A description is provided in following of the effect of the le compound on the metastatic capacity of MB16 in in-vivo tests. For this purpose, the MB16 cells treated with le are inoculated intrasplenically in C57BU6J mice (3×10^5 viable cells per animal, resuspended in endotoxin-free sterile saline solution), and the microvascular retention within the first 18 hours and their ability to develop metastasis on day 12 following the tumor injection is determined.
as §1

Solubility in water = assay type: physicochemical; settings: compared with 11f

T1 sequence (Q00651 41-1039): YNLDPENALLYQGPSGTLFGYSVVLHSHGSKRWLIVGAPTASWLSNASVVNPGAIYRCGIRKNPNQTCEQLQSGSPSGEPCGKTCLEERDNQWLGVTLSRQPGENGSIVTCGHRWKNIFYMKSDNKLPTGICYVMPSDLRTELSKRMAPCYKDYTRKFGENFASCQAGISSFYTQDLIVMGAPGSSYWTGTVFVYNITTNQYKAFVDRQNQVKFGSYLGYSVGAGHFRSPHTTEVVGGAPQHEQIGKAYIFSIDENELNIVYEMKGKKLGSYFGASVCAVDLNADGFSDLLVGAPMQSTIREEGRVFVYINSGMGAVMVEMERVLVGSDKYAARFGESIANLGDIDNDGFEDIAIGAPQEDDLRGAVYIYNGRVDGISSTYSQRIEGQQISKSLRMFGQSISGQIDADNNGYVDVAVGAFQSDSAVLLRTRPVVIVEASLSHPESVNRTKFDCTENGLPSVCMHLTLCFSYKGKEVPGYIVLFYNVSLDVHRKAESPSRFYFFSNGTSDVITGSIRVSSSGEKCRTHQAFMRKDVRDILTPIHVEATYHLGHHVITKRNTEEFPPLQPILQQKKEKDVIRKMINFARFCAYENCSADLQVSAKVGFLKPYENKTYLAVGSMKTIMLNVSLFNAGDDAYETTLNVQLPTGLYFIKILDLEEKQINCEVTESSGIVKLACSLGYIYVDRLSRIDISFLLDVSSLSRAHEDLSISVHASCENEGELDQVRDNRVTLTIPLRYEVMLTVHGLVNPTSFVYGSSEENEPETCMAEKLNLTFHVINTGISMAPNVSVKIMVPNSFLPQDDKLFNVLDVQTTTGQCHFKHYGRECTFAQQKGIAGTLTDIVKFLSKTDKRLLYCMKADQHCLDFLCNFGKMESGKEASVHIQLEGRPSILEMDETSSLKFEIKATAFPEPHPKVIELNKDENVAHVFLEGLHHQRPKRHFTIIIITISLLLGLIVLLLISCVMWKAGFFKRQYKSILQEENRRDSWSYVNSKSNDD
T1 sequence (P09055 21-798): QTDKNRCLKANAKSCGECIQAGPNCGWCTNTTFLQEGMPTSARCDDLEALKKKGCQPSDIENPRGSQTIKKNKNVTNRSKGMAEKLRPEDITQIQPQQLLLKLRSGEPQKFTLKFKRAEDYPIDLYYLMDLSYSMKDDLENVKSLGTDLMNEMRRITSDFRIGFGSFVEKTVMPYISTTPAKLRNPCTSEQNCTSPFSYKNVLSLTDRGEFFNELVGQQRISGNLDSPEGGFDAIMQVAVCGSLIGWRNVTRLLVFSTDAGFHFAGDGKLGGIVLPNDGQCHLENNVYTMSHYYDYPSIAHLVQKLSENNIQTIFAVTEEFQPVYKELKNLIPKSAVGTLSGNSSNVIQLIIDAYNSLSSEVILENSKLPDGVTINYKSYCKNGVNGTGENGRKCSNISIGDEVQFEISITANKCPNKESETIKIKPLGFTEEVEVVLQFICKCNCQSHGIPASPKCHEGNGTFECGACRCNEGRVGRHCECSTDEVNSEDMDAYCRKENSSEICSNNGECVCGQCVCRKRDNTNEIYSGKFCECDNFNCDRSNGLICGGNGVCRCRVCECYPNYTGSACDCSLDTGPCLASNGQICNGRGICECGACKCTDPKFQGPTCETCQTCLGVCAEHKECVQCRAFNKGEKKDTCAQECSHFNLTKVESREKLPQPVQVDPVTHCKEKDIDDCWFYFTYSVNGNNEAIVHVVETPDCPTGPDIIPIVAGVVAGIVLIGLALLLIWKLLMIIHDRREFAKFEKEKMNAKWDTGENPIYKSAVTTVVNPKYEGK

melting point: 119 to 120 °C
SMILES: CC(C)[C@H](OCc1ccccc1)[C@H]1[C@H]([N+](=O)[O-])[C@H](C(C)(C)C)N[C@@H]1C(=O)NCC(=O)O [Compound 11b, 2-[(2S,3R,4S,5S)-5-tert-Butyl-3-[(S)-1-(benzyloxy)-2-methylpropyl]-4-nitropyrrolidine-2-carboxamido]acetic acid]
antiadhesive activity (B16M cell adhesion to HSE cells) (VLA-4 [1]): did not show any significant antiadhesive activity

adhesion of melanoma cells to immobilized VCAM-1 (VLA-4 [3]): completely abrogated
solubility in water (Solubility in water): higher solubility in water
SMILES: CC[C@H](C)[C@H](OCc1ccccc1)[C@H]1[C@H]([N+](=O)[O-])[C@H](c2ccccc2)N[C@@H]1C(=O)NCC(=O)O [Compound 11d, 2-[(2S,3R,4S,5S)-3-[(1S,2S)-1-(Benzyloxy)-2-methylbutyl]-4-nitro-5-phenyl-pyrrolidine-2-carboxamido]acetic acid]
VEGF production induced by soluble VCAM-1 [2]: prevented
cell viability and cytotoxicity, intracellular oxidative metabolism, cell-proliferation rates (B16M cells [4]): excluded that antimetastatic effects of 11d compound may have been caused by indirect effects on cell functions
decrease of metastasis density (B16M cells [5]): 60%
decrease of metastasis volume (B16M cells [5]): 95%
antiadhesive activity (B16M cell adhesion to HSE cells) (VLA-4 [1]): comparable antiadhesive activity to monoclonal antibodies against murine VLA-4

antiadhesive activity (B16M cell adhesion to HSE cells) (VLA-4 [1]): almost inactive
SMILES: CC(C)[C@H](OCc1c(F)cccc1F)[C@H]1[C@H]([N+](=O)[O-])[C@H](c2ccccc2)N[C@@H]1C(=O)NCC(=O)O [Compound 11e, 2-[(2S,3R,4S,5S)-3-[(S)-1-(2,6-Difluorobenzyloxy)-2-methylpropyl]-4-nitro-5-phenyl-pyrrolidine-2-carboxamido]acetic acid]

antiadhesive activity (B16M cell adhesion to HSE cells) (VLA-4 [1]): best activity in vitro
SMILES: CC[C@H](C)[C@H](OCc1ccccc1)[C@H]1[C@H]([N+](=O)[O-])[C@H](C2CCCCC2)N[C@@H]1C(=O)NCC(=O)O [Compound 11f, 2-[(2S,3R,4S,5S)-3-[(1S,2S)-1-(benzyloxy)-2-methylbutyl]-5-cyclohexyl-4-nitropyrrol-idine-2-carboxamido]acetic acid]

SMILES: CC[C@H](C)[C@H](OCc1ccccc1)[C@H]1[C@H]([N+](=O)[O-])[C@H](C2CC2)N[C@@H]1C(=O)NCC(=O)O [Compound 11h, 2-[(2S,3R,4S,5S)-3-[(1S,2S)-1-(benzyloxy)-2-methylbutyl]-5-cyclopropyl-4-nitropyrrol-idine-2-carboxamido]acetic acid]
antiadhesive activity (B16M cell adhesion to HSE cells) (VLA-4 [1]): did not show any significant antiadhesive activity

SMILES: CC[C@H](C)[C@H](OCc1ccccc1)[C@@H]1[C@H]([N+](=O)[O-])[C@H](c2ccccc2)N[C@]1(C)C(=O)NCC(=O)O [Compound 11j, 2-[(2S,3R,4S,5S)-3-[(1S,2S)-1-(Benzyloxy)-2-methylbutyl]-2-methyl-4-nitro-5-phenyl-pyrrolidine-2-carboxamido]acetic acid]
antiadhesive activity (B16M cell adhesion to HSE cells) (VLA-4 [1]): did not result in a significant loss of activity
